{
  "source": "paper PMC10827794",
  "about": "(2024)",
  "key": {"[1]": {"system": "WT_5.1 (Oligo 5.1) (DNA, G4) TAGAGGACAGCGGGGAAGGCGGGCGGTGGGGCAGGGGGCCTGAAGCGGCGGTACCGGTGCTGGCGGCGGCAGCTGAGGCC", "test": "fluorescence enhancement", "settings": "1 μM DNA, 2 μM TO"}, "[2]": {"system": "WT_40.1 (Oligo 40.1) (DNA, G4) GGGGGCGGGGGCGGGGGTGGGGGGAAGAAAAATTCCTAGCTGTAGCTGACTGCA", "test": "fluorescence enhancement", "settings": "10 mM Tris-Cl pH 7.5, 25 °C, 1 μM DNA, 2 μM TO"}, "[3]": {"system": "WT_14.2 (Oligo 14.2) (DNA, G4) ATAGAGAGTGATGGGGAGGGGGTGAGTGGAGGGTCAAGGAAGGCCCTCCCTGAGGTGGTGTTATTTGACGGGGGTCCACA", "test": "fluorescence enhancement", "settings": "1 μM DNA, 2 μM TO"}, "[4]": {"system": "WT_14.1 (Oligo 14.1) (DNA, G4) AAAGGGAAGTATGGCTGGTGTACCGGGAGCAAGGGAGAGGGAAGGAGGGGCCAAATTAATAGGCCCACGGT", "test": "fluorescence enhancement", "settings": "1 μM DNA, 2 μM TO"}, "[5]": {"system": "WT_5.1R (RNA, G4) GCGAAAGGGGAAGGCGGGCGGUGGGGCAGGGGGCCUGAAGCGGCCUAGCUGUAGCUGACUGCA", "test": "fluorescence enhancement", "settings": "no added monovalent cation; 10 mM Tris-Cl pH 7.5, 0.01 mM EDTA, 25 °C; 2 μM RNA, 2 μM ThT; ~160-fold enhancement"}, "[6]": {"system": "WT_8.1 (Oligo 8.1) (DNA, G4) CTGCCTGACAAGGGCTAGGGGGAGATCTGTGTTGGGTGACCAGGGCCATA", "test": "fluorescent intercalator displacement (G4-FID)", "settings": "TO displaced; ligand 0-2.5 μM"}, "[7]": {"system": "Template_5.2 with 5.2 primer (DNA, G4) CCGCGCGGTGAGTCTAGGGCCTGGCACGACCCCTCTAGGGCGGCGTAATGTCCAGACCCA/CGTGGGTCTGGACAT", "test": "polymerase stop (primer extension)", "settings": "KCl, 1 mM MgCl2; 40 mM Tris-HCl pH 8.0, 40 °C; ligand 0-20 μM; truncated products"}, "[8]": {"system": "WT_14.2 (Oligo 14.2) (DNA, G4) ATAGAGAGTGATGGGGAGGGGGTGAGTGGAGGGTCAAGGAAGGCCCTCCCTGAGGTGGTGTTATTTGACGGGGGTCCACA", "test": "fluorescent intercalator displacement (G4-FID)", "settings": "TO displaced; ligand 0-2.5 μM"}, "[9]": {"system": "WT_14.1 (Oligo 14.1) (DNA, G4) AAAGGGAAGTATGGCTGGTGTACCGGGAGCAAGGGAGAGGGAAGGAGGGGCCAAATTAATAGGCCCACGGT", "test": "fluorescent intercalator displacement (G4-FID)", "settings": "TO displaced; ligand 0-2.5 μM"}, "[10]": {"system": "WT_5.3 (Oligo 5.3) (DNA, G4) CGGCCAGCCTGCCCGTGGGGGGGCCAGGGGAAGCCGCCCGTCTGGGACGTGGGGTCCCCA", "test": "fluorescent intercalator displacement (G4-FID)", "settings": "TO displaced; ligand 0-2.5 μM"}, "[11]": {"system": "WT_5.2 (Oligo 5.2) (DNA, G4) CCGCGCGGTGAGTCTAGGGCCTGGCACGACCCCTCTAGGGCGGCGTAATGTCCAGACCCA", "test": "fluorescent intercalator displacement (G4-FID)", "settings": "TO displaced; ligand 0-2.5 μM"}, "[12]": {"system": "Template_8.1 with 8.1 primer (DNA, G4) CTGCCTGACAAGGGCTAGGGGGAGATCTGTGTTGGGTGACCAGGGCCATAAGTAAATTTCATCATACT/AGTATGATGAAATTTACTTATGG", "test": "polymerase stop (primer extension)", "settings": "KCl, 1 mM MgCl2; 40 mM Tris-HCl pH 8.0, 40 °C; ligand 0-20 μM; truncated products"}, "[13]": {"system": "WT_5.1 (Oligo 5.1) (DNA, G4) TAGAGGACAGCGGGGAAGGCGGGCGGTGGGGCAGGGGGCCTGAAGCGGCGGTACCGGTGCTGGCGGCGGCAGCTGAGGCC", "test": "fluorescent intercalator displacement (G4-FID)", "settings": "TO displaced; ligand 0-2.5 μM"}},
  "data": [
    {"compound": "CN1C(=Cc2cc[n+](C)c3ccccc23)Sc2ccccc21", "values": [
      {"measurement": "binding", "setting": "[1]", "value": "yes"},
      {"measurement": "binding", "setting": "[2]; 100 mM KCl, enhancement lower than without K+", "value": "yes"},
      {"measurement": "binding", "setting": "[2]; no added monovalent cation, ~330-fold enhancement", "value": "yes"},
      {"measurement": "binding", "setting": "[3]", "value": "yes"},
      {"measurement": "binding", "setting": "[4]", "value": "yes"}
    ]},
    {"compound": "Cc1ccc2c(c1)sc(-c1ccc(N(C)C)cc1)[n+]2C", "values": [
      {"measurement": "binding", "setting": "[5]", "value": "yes"}
    ]},
    {"compound": "C[n+]1ccc(-c2c3nc(c(-c4cc[n+](C)cc4)c4ccc([nH]4)c(-c4cc[n+](C)cc4)c4nc(c(-c5cc[n+](C)cc5)c5ccc2[nH]5)C=C4)C=C3)cc1", "values": [
      {"measurement": "DC50", "setting": "[6]", "value": 479.1, "unit": "nM"},
      {"measurement": "binding", "setting": "[7]", "value": "yes"},
      {"measurement": "DC50", "setting": "[8]", "value": 629.6, "unit": "nM"},
      {"measurement": "DC50", "setting": "[9]", "value": 897.7, "unit": "nM"},
      {"measurement": "DC50", "setting": "[10]", "value": 956.3, "unit": "nM"},
      {"measurement": "DC50", "setting": "[11]", "value": 1039, "unit": "nM"},
      {"measurement": "binding", "setting": "[12]", "value": "yes"},
      {"measurement": "DC50", "setting": "[13]", "value": 880, "unit": "nM"}
    ]}
  ]
}
